# Experiments:
# [1] = system: immortalized human leiomyoma cell line (HuLM); test: BRD inhibitor screening by MTT cell proliferation assay, HuLM cells; format: cell-based; details: 24 hours and 48 hours
# Description: (§1) The immortalized human leiomyoma cell line (HuLM) and immortalized human uterine smooth muscle (UTSM) cells were cultured and maintained in phenol red-free, Dulbecco's Modified Eagle Medium: Nutrient Mixture F-12. The cells were grown at 37° C. and 5% CO2 in an incubator with saturating humidity.
# (§2) Cell proliferation was measured using a 3-(4,5-dimethylthiazol-2-yl)-2,5-diphenyltetrazolium bromide (MTT) assay. 2×10^4 UTSM or HuLM cells per well were seeded into 12-well tissue culture plates in the absence or presence of each BRD inhibitor from Table 1 for 24 hours or 48 hours. The inhibitors used in this assay were from the Epigenetic Library at the University of Illinois at Chicago. This assay was performed three times in triplicate.
# [2] = system: immortalized human uterine smooth muscle (UTSM) cells; test: BRD inhibitor screening by MTT cell proliferation assay, UTSM cells; format: cell-based; details: 24 hours and 48 hours
# Description: as §1, §2
# UTSM and HuLM cells = test: Cell proliferation by trypan blue exclusion assay, HuLM versus UTSM cells; format: cell-based, human; details: 1-25 μM, 48 hours
# Description: Cell proliferation was measured using trypan blue exclusion assay. UTSM and HuLM cells (2×10^4 cells per well) were seeded into 12-well tissue culture plates. After 24 hours the cells were cultured in the absence or presence of the BRD inhibitor I-BET762 or (+)-JQ1 at a dose range from 1-25 μM for 48 hours. DMSO was used as a vehicle control. Cells were trypsinized, collected by centrifuge, and resuspended in serum-free medium. Equal volumes of 0.4% trypan blue and cell suspension were mixed and cells were counted using a hemacytometer.
# HuLM cells [3] = test: Western immunoblot of HuLM cells after BRD inhibition treatment; format: cell-based, human; details: 0-25 μM, 48 hours
# Source text: Cells were collected and lysed in RIPA lysis buffer with protease and phosphatase inhibitor cocktail (Thermo Scientific, Waltham, MA, USA), and the protein was quantified using the Bradford method (Bio-Rad Protein Assay kit). The antibodies used were: METTL3 (ab195352, Abcam), YTHDC1 (ab122340, Abcam), YTHDC2 (35440, Cell Signaling), YTHDF2 (ab220163, Abcam), BCL-2 (ab182858, Abcam), FN (26836, Cell Signaling), PCNA (GTX100539, Genetex), BRD2 (5848, cell signaling), BRD3 (ab50818, Abcam), BRD9 (58906, Cell Signaling). The antigen-antibody complex was detected with Trident Femto Western HRP substrate (GeneTex, Irvine, CA, USA). Specific protein bands were visualized using ChemiDoc XRS ? molecular imager (Bio-Rad, Hercules, CA, USA).
# HuLM cells were cultured in phenol red-free, 10% fetal bovine serum Dulbecco's Modified Eagle Medium: Nutrient Mixture F-12 at 37° C., 5% CO2 in the absence or presence of the BRD inhibitors I-BRD9 and TP-472 for 48 hours respectively. The concentrations of both inhibitors were used in the range of 0-25 μM. Cells were collected after treatment for Western immunoblot as described above.
# HuLM cells [4] = test: RNA-sequencing / transcriptome analysis of treated HuLM cells; format: cell-based, human; details: 5 μM, 48 hr
# Description: To determine the mechanism underlying the inhibitory effect of BRD9 inhibition on the UFs, the HuLM cells were treated with BRD9 inhibitor I-BRD9 (5 μM, n=4), TP-472 (5 μM, n=3), and DMSO vehicle control (n=4) for 48 hr. RNA was isolated using Trizol. RNA quality and quantity were assessed using the Agilent bio-analyzer. Strand-specific RNA-SEQ libraries were prepared using a TruSEQ total RNA-SEQ library protocol (Illumina provided). Library quality and quantity were assessed using the Agilent bio-analyzer and libraries were sequenced using an Illumina NovaSEQ6000 (illumine provided reagents and protocols).
# A variety of R packages was used for this analysis. All graphics and data wrangling were handled using the tidyverse suite of packages (available from tidyverse.org). All packages used are available from the Comprehensive R Archive Network (CRAN), Bioconductor.org, or GitHub. The reads were mapped to the human reference transcriptome using STAR, version 2.6.1d, as previously described (Dobin et al., Bioinformatics 29 (1):15-21 (2013)). The quality of raw reads, as well as the results of STAR mapping, are generated using fastqc (available from bioinformatics.babraham.ac.uk/projects/fastqc/) and multiqc (available from multiqc.info). Raw reads were mapped to the human reference transcriptome using Salmon, version 1.4.0 (available from combine-lab.github.io/salmon/). After reading mapping with Salmon, Bioconductor (available from bioconductor.org/packages/release/bioc/html/tximport) was used to read Salmon outputs into the R environment. Annotation data from Gencode V34 was used to summarize data from transcript-level to gene-level.
Compound,UF (HuLM) cell proliferation [1],myometrial (UTSM) cell proliferation [2],"cellular proliferation, UF cells versus myometrium cells (UTSM and HuLM cells)",expression of YTHDC1 (HuLM cells [3]),expression of YTHDC2 (HuLM cells [3]),expression of YTHDF2 (HuLM cells [3]),expression of anti-apoptosis protein BCL-2 (HuLM cells [3]),fibronectin (FN) levels (HuLM cells [3]),levels of PCNA (marker for cell proliferation) (HuLM cells [3]),Hallmark analysis: pathway alteration in response to inhibition of BRD (HuLM cells [4]),pathways altered (bioinformatic analysis of RNA sequencing) (HuLM cells [4]),expression of METTL3 (HuLM cells [3])
Cn1cc(CCn2cnc(-c3cnn(C)c3)c2-c2ccc(C#N)cc2)cn1 [BAZ2-ICR],selectively inhibited UF,not myometrial cell proliferation,,,,,,,,,,
CCNC(=O)C[C@@H]1N=C(c2ccc(Cl)cc2)c2cc(OC)ccc2-n2c(C)nnc21 [I-BET762],,,reduced cellular proliferation more potently in UF cells than myometrium cells in a dose dependent manner,,,,,,,,,
CCn1cc(-c2cccc(C(F)(F)F)c2)c2sc(C(=N)NC3CCS(=O)(=O)CC3)cc2c1=O [I-BRD9],selectively inhibited UF,not myometrial cell proliferation,,dose-dependent downregulation,dose-dependent downregulation,dose-dependent downregulation,increased the expression of the anti-apoptosis protein BCL-2,decreased FN levels,decreasing the levels of PCNA,"E2F, MYC Target, G2M checkpoint, and mitotic spindle pathways","altered the pathways related to biological processes, transcriptional factors",
Cc1cc(=O)n(C)c2cc(N3C(=O)CC[C@H](NS(=O)(=O)CC(C)C)[C@H]3c3ccc(Cl)cc3)ccc12 [LP99],selectively inhibited UF,not myometrial cell proliferation,,,,,,,,,,
CCCS(=O)(=O)c1nc(NC2CC2)cc(-c2ccc3c(ccn3C3CC(C)(C)NC(C)(C)C3)c2)n1 [NVS-CECR2-1],selectively inhibited UF,not myometrial cell proliferation,,,,,,,,,,
CC(=O)c1cc(-c2cc(C(=O)NC3CC3)ccc2C)c2ncccn12 [TP-472],selectively inhibited UF,not myometrial cell proliferation,,dose-dependent downregulation,dose-dependent downregulation,,,decreased FN levels,decreasing the levels of PCNA,"E2F, MYC Target, G2M checkpoint, and mitotic spindle pathways","altered the pathways related to biological processes, transcriptional factors",dose-dependent downregulation
